Data published in patent US7214794B2, “Ceramide analogs, process for their preparation and their use as antitumor agents” (Bracco S.p.A., priority 1999, dated 2007).

Tested on: human leukemia cell line CCRF/CEM
Assay: Cytotoxicity test (growth inhibition of CCRF/CEM cells)
Assay type: cell-based
Conditions: 72 hours exposure, cell count, non-linear regression, read-out: IC50 (concentration capable of inhibiting 50% of cell growth)
Protocol: The cytotoxicity of the compounds synthesized 1–28 was assessed using a human leukemia cell line called CCRF/CEM. The CCRF/CEM cells were cultured in a culture medium containing RPMI 1640 (90%), bovine fetal sera (10%) and interleukin-2 (100 U/ml). The cytotoxicity assay was performed on […] CCRF/CEM cells seeded in 35 mm wells in 2 ml of culture medium. The cells were treated with the compounds under consideration for 72 hours and at the end of the period of exposure their number was counted and compared with that of control cells treated with C2-ceramide in order to establish the percentage of growth inhibition. The concentration capable of inhibiting 50% of cell growth was calculated by non-linear regression of the experimental data as described in M. Macchia, N. Jannitti, G. B. Gervasi, R. Danesi, J Med Chem, (1996) 39 (7): 1352–1356.

For `CCCCCCCCCCCCC/C=C/[C@@H](O)[C@H](CO)NC(C)=O` [controls, C2-ceramide], the IC50 was 31.6 µM.
